Laboratory results: patent US20200333324A1, “METHOD OF PREDICTING CLINICAL OUTCOME OF ANTICANCER AGENTS” (MITRA RXDX, INC., priority 2017, published 2020)

Key:
Assay type in all cases: cell-based, human
HNSCC tumor tissue [1] = test: Granzyme B and Perforin secretion assays, HNSCC tumor sections in tumor microenvironment platform; conditions: 48 hours
Protocol: FIGS. 9A and 9B show quantification of results for Granzyme B and Perforin secretion assays for HNSCC tumor tissue cultured in the tumor microenvironment platform treated with Pembrolizumab, Nivolumab, or IgG control for 24 or 48 hours.
HNSCC tumor sections from the same patient cultured for 24 or 48 hours in the tumor microenvironment platform with Pembrolizumab, Nivolumab, or IgG as control were assayed for Granzyme B and Perforin secretion. Results are shown in FIG. 9A for the tumor microenvironment platform with tumor tissue from a predicted responder and FIG. 9B for the tumor microenvironment platform with tumor tissue from a predicted non-responder. After treatment with Pembrolizumab for 48 hours, there was an increase in both Granzyme B and Perforin secretion in the tumor microenvironment platform with tissue from the predicted responder compared to treatment with the control IgG. By contrast, at 48 hours in the tumor microenvironment platform with tissue from the predicted non-responder there was no increase in Granzyme B or Perforin secretion for treatment with either Pembrolizumab or Nivolumab.

HNSCC tumor tissue [2] = test: FACS analysis for CD3 and CD8 (CD8+ T cell infiltration) in tumor microenvironment platform; conditions: vs IgG control
Protocol: The effect of Pembrolizumab and Nivolumab on CD8^+ T cell tumor infiltration was then evaluated. Tumor sections from the same patient cultured for 72 hours in the tumor microenvironment platform were treated with Pembrolizumab, Nivolumab, or IgG as control and stained for H&E, Ki67, Caspase 3, and CD8 at day 3 in culture (T3). Baseline staining was determined at TO. […] To further elucidate the effects of the anti-PD-1 antibodies, FACS analysis was performed on tumor tissue from patient 2941 and patient 2942 treated with either Pembrolizumab, Nivolumab, or IgG control. […] By contrast, there was no effect of either Pembrolizumab or Nivolumab on CD8^+ T cell infiltration for patient 2942, further highlighting the differential response between individuals to PD-1 blockade. CD8^+ T cell infiltration was evaluated in the tumor microenvironment platform with tumor tissue from the same patient, and comparisons for control vs Nivo, control vs Pembro, Nivo vs Pembro, and control vs Nivo vs Pembro for multiple patients are shown in FIG. 6 (each line represents results from the tumor microenvironment platform cultured with tumor tissue from a single individual).

HNSCC tumor tissue [3] = test: M-score clinical outcome predictor: tumor microenvironment platform assays (WST-1, LDH, ATP, glucose uptake, Caspase 3/8, Ki67, H&E) input into machine-trained algorithm; design: scale not given here
Source text: Utilizing primary and late stage HNSCC patient samples (n=16) we interrogated phenotypic response to both Pembrolizumab (KEYTRUDA) and Nivolumab (OPDIVO), two FDA-approved PD-1 inhibitors, as single agents on the tumor microenvironment platform with tumor tissue from the same patient. To do this, we assayed tumor proliferation (Ki67) and apoptosis (active caspase-3), in addition to using a comprehensive panel of immunological assays to evaluate changes in the immune compartment (CD8, CD45, FOXP3, CXCR4, CD68, PDL1, PD1) and cytokine profile (IL6, IL8, IFN-g and IL12).

PBNCs = test: FACS analysis for CD25, CD127 and FOXP3 expression, PBNCs
Protocol: The effect of treatment with Nivolumab and Pembrolizumab on CD25, CD127, and FOXP3 expression was then evaluated. Tumor sections or PBNCs from the same patient cultured for 3 days in the tumor microenvironment platform were treated with Pembrolizumab, Nivolumab, or IgG control for one day followed by FACS analysis for expression of CD25, CD127, and FOXP3.

HNSCC tumor tissue [4] = test: M-score clinical outcome predictor: tumor microenvironment platform assays (WST-1, LDH, ATP, glucose uptake, Caspase 3/8, Ki67, H&E) input into machine-trained algorithm; design: scale not given here; remark: listed apart in the source
[5] = predicted responder, compared to control IgG

| M-score (HNSCC tumor tissue [3]; Patient ID 2918) | M-score (HNSCC tumor tissue [3]; Patient ID 2928) | M-score (HNSCC tumor tissue [3]; Patient ID 2941) | M-score (HNSCC tumor tissue [3]; Patient ID 2948) | M-score (HNSCC tumor tissue [3]; Patient ID 2949) | M-score (HNSCC tumor tissue [3]; Patient ID 2956) | M-score (HNSCC tumor tissue [3]; Patient ID 2978) | M-score (HNSCC tumor tissue [3]; Patient ID 2981) | Substance | Granzyme B secretion (HNSCC tumor tissue [1]; predicted non-responder) | Perforin secretion (HNSCC tumor tissue [1]; predicted non-responder) | CD8^+ T cell infiltration (FACS) (HNSCC tumor tissue [2]; patient 2941) | CD8^+ T cell infiltration (FACS) (HNSCC tumor tissue [2]; patient 2942) | CD25^+/FOXP3^− PBMCs (% total cells) (PBNCs; Non-Responder, control 3.67) | CD25^+/CD127^+ PBMCs (% total cells) (PBNCs; Non-Responder, control 14.6) | CD25^+/CD127^− PBMCs (% total cells) (PBNCs; Non-Responder, control 15.1) | CD25^−/FOXP3^− PBMCs (% total cells) (PBNCs; Non-Responder, control 18.2) | CD25^+/FOXP3^+ PBMCs (% total cells) (PBNCs; Non-Responder, control 22.1) | CD25^−/CD127^+ PBMCs (% total cells) (PBNCs; Non-Responder, control 26.2) | CD25^−/CD127^− PBMCs (% total cells) (PBNCs; Non-Responder, control 44.1) | CD25^− FOXP3^+ PBMCs (% total cells) (PBNCs; Non-Responder, control 56.0) | other results |
| --- | --- | --- | --- | --- | --- | --- | --- | --- | --- | --- | --- | --- | --- | --- | --- | --- | --- | --- | --- | --- | --- |
| 27 | 19 | 41 | 12 | 11 | 10 | 33 | 6 | Nivolumab | no increase | no increase | increase | no effect | 1.40 % total cells | 25.1 % total cells | 8.22 % total cells | 7.90 % total cells | 29.0 % total cells | 44.4 % total cells | 22.3 % total cells | 61.7 % total cells | CD25^+/FOXP3^− PBMCs (% total cells) (PBNCs; Responder, control 3.04): 8.91 % total cells; CD25^+/CD127^− PBMCs (% total cells) (PBNCs; Responder, control 11.7): 6.53 % total cells; CD25^+/CD127^+ PBMCs (% total cells) (PBNCs; Responder, control 16.8): 30.4 % total cells; CD25^+/FOXP3^+ PBMCs (% total cells) (PBNCs; Responder, control 21.7): 24.0 % total cells; CD25^−/FOXP3^− PBMCs (% total cells) (PBNCs; Responder, control 23.2): 29.8 % total cells; CD25^−/CD127^+ PBMCs (% total cells) (PBNCs; Responder, control 24.8): 44.2 % total cells; CD25^−/CD127^− PBMCs (% total cells) (PBNCs; Responder, control 46.6): 18.9 % total cells; CD25^− FOXP3^+ PBMCs (% total cells) (PBNCs; Responder, control 52.1): 37.3 % total cells; M-score (HNSCC tumor tissue [4]; Patient ID 2916): 13; M-score (HNSCC tumor tissue [4]; Patient ID 2926): 31; M-score (HNSCC tumor tissue [4]; Patient ID 2939): 5; M-score (HNSCC tumor tissue [4]; Patient ID 2942): 28; M-score (HNSCC tumor tissue [4]; Patient ID 2950): 16; M-score (HNSCC tumor tissue [4]; Patient ID 2963): 5; M-score (HNSCC tumor tissue [4]; Patient ID 2979): 9; M-score (HNSCC tumor tissue [4]; Patient ID 2980): 12 |
| 13 | 16 | 38 | 4 | 6 | 6 | 22 | 7 | Pembrolizumab | no increase | no increase | but not Pembrolizumab | no effect | 2.8 % total cells | 25.6 % total cells | 7.71 % total cells | 10.9 % total cells | 29.1 % total cells | 45.3 % total cells | 21.4 % total cells | 57.2 % total cells | Granzyme B secretion (HNSCC tumor tissue [1]; [5]): increase; Perforin secretion (HNSCC tumor tissue [1]; [5]): increase; CD25^+/FOXP3^− PBMCs (% total cells) (PBNCs; Responder, control 3.04): 3.94 % total cells; CD25^+/CD127^− PBMCs (% total cells) (PBNCs; Responder, control 11.7): 7.77 % total cells; CD25^+/CD127^+ PBMCs (% total cells) (PBNCs; Responder, control 16.8): 20.4 % total cells; CD25^+/FOXP3^+ PBMCs (% total cells) (PBNCs; Responder, control 21.7): 22.1 % total cells; CD25^−/FOXP3^− PBMCs (% total cells) (PBNCs; Responder, control 23.2): 20.0 % total cells; CD25^−/CD127^+ PBMCs (% total cells) (PBNCs; Responder, control 24.8): 46.4 % total cells; CD25^−/CD127^− PBMCs (% total cells) (PBNCs; Responder, control 46.6): 25.4 % total cells; CD25^− FOXP3^+ PBMCs (% total cells) (PBNCs; Responder, control 52.1): 54.0 % total cells; M-score (HNSCC tumor tissue [4]; Patient ID 2916): 8; M-score (HNSCC tumor tissue [4]; Patient ID 2926): 28; M-score (HNSCC tumor tissue [4]; Patient ID 2939): 4; M-score (HNSCC tumor tissue [4]; Patient ID 2942): 18; M-score (HNSCC tumor tissue [4]; Patient ID 2950): 13; M-score (HNSCC tumor tissue [4]; Patient ID 2963): 9; M-score (HNSCC tumor tissue [4]; Patient ID 2979): 27; M-score (HNSCC tumor tissue [4]; Patient ID 2980): 19 |
